One data set concerns KB. In words: MTT assay, antiproliferative activity against KB cells. The following applies: Homo sapiens, 72 h, mean of at least two determinations. It counts as cell-based. An excerpt: (§1) All synthesized target compounds were firstly tested for their antiproliferative activity against five human cancer cell lines, PC3, A549, HCT116, HL60, and KB, using MTT assay.
(§2) Human prostate cancer PC3 cells, lung adenocarcinoma epithelial A549 cells, colon cancer HCT116 cells, promyelocytic leukemia HL60 cells and nasopharyngeal carcinoma KB cells were obtained from the cell bank of the Institute of Biochemistry and Cell Biology, Chinese Academy of Sciences (Shanghai, China). The inhibitory activity of target compounds against tested cancer cell lines was measured using the MTT assay. PC3, A549, HCT116, HL60, and KB cancer cell lines were cultured in RPMI-1640 medium (Invitrogen, Carlsbad, CA, USA) with heat-inactivated 10% fetal bovine serum, penicillin (100 units/mL) and streptomycin (100 µg/mL) and incubated in an atmosphere with 20% oxygen and 5% carbon dioxide at 37°C. All tested compounds were dissolved in DMSO at concentrations of 10.0 mg/mL and diluted to appropriate concentrations. Cells were plated in 96-well plates for 24 h and subsequently treated with different concentrations of all tested compounds for 72 h. Viable cells were determined using 3-(4,5-dimethylthiazol-2-yl)-2,5-diphenyltetrazolium bromide assay kit (MTT, Sigma) according to operation instructions provided by the manufacturer. The concentration of drug causing 50% inhibition in absorbance compared with control cells (IC50) was calculated using the software of dose-effect analysis with microcomputers.

Another data set relates to PC3. In words: MTT assay, antiproliferative activity against PC3 cells. It counts as cell-based. The following applies: Homo sapiens, PC-3, 72 h, mean of at least two determinations.
Excerpt: as §1, §2
Background: Tetrazolium dyes change colour on reduction, which living cells bring about.

The test system of the next data set is HL60. In words: MTT assay, antiproliferative activity against HL60 cells. It counts as cell-based. The following applies: Homo sapiens, HL-60, 72 h, mean of at least two determinations.
Excerpt: as §1, §2

For the next data set, the system named is A549. Description: MTT assay, antiproliferative activity against A549 cells. It counts as cell-based. The following applies: Homo sapiens, 72 h, mean of at least two determinations.
Excerpt: as §1, §2

For another data set, the target named is T1, recombinant human PI3Kα (Homo sapiens, UniProt P42336).
T1 construct: purchased Echelon Biosciences (Salt Lake City, UT, USA) E-2000
Description: Competitive fluorescence polarization (FP) assay, inhibition of PI3Kα. The following applies: for Binding efficiency index (BEI): BEI = pIC50 (M)/MW (kDa), PI3Kα. It counts as biochemical. As to the method: Selected compounds were then tested for their enzymatic inhibitory activity against PI3Kα using a competitive fluorescence polarization (FP) assay to determine the molecular target of synthesized compounds [21].
The PI3Kα inhibitory test was determined using a competitive fluorescence polarization kinase activity assay. PI3K fluorescence polarization assay kit (catalog No. K-1100) and recombinant human PI3Kα (catalog No. E-2000) were purchased from Echelon Biosciences (Salt Lake City, UT, USA). PI3K reactions were performed in 5 mM HEPES, Ph 7, 2.5 mM MgCl2, 10 mM DTT and 50 µM ATP, using diC8-phosphatidylinositol-4, 5-bisphosphate (PIP2) as the substrate, and the final reaction volumes were 10 µL. For evaluation of the PI3Kα inhibitory activity of target compounds, 50 ng enzyme and 10 µM substate were used per 10 µL reaction volume with the concentrations of inhibitors ranging from 3.2 nM to 10 µM. After incubating for 3 h at room temperature, reactions were quenched by adding chelators. A mixture of phosphoinositide binding protein was added and mixed, followed by the addition of a fluorophore-labeled phosphoinositide tracer. Samples were then mixed in 384-well black Corning nonbinding plates (Corning, NY, USA) and incubated in a dark environment for 1 h to equilibrate. Finally, polarization values were measure using red fluorophores with appropriate filters to determine the extent of enzyme activity in the reaction.

A further data set has as its system HCT116. In words: MTT assay, antiproliferative activity against HCT116 cells. It counts as cell-based. The following applies: Homo sapiens, HCT-116, 72 h, mean of at least two determinations.
Excerpt: as §1, §2

[1] abbreviates: FP assay, 50 µM ATP, mean of at least two determinations.

T1 sequence (P42336 whole entry): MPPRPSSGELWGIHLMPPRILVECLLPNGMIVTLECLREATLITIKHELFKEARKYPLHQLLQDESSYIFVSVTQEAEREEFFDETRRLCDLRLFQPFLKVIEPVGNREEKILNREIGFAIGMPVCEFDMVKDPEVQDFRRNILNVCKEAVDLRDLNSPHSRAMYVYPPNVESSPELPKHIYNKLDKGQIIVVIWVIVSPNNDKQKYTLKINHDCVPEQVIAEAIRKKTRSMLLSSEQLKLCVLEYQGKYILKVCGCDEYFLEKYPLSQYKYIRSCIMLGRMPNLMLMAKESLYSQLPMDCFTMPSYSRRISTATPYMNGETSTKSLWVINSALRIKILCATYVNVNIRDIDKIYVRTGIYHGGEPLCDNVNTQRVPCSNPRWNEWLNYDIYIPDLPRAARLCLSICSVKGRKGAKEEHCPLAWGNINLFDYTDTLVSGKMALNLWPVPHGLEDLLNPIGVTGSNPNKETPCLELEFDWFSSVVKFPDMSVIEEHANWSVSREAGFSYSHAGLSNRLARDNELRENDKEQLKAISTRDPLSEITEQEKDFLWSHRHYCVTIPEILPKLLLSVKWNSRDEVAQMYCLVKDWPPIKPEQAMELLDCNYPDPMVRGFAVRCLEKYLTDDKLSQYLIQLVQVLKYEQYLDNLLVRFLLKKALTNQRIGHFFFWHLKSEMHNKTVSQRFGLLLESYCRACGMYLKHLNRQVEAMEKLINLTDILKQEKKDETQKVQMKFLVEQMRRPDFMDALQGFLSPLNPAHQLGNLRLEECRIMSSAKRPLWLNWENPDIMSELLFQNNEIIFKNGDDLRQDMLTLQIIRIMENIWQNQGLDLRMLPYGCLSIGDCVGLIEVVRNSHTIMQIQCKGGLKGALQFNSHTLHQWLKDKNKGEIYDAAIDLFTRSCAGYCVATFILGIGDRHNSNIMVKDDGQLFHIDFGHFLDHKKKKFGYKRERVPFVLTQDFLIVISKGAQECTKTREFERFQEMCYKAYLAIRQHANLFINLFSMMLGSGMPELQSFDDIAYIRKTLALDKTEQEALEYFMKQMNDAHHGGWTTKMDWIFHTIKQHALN
T1 sequence (P27986 whole entry partner): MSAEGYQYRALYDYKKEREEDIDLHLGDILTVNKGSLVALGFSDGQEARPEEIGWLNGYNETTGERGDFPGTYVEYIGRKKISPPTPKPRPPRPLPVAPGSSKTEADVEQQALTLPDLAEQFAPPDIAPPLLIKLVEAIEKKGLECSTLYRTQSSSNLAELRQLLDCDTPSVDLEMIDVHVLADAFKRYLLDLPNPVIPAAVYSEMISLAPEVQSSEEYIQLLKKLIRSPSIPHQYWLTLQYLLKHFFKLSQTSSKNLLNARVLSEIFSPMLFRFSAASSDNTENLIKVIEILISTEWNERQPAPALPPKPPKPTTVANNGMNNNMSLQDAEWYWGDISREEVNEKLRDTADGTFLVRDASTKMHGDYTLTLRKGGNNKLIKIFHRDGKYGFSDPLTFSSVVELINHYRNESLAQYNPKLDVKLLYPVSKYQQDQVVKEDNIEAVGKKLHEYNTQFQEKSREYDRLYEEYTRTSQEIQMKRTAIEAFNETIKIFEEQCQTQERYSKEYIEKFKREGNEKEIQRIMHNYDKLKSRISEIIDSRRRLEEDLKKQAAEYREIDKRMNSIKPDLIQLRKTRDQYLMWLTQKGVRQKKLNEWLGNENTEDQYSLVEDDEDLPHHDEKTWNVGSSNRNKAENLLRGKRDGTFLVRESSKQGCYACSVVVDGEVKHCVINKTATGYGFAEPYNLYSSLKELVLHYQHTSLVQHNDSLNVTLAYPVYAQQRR

One may read the melting point as the temperature of the solid-liquid transition. One may read the IC50 as the concentration at which inhibition is half-maximal. Consider `NC(=O)C1CCN(c2nc3ccccc3nc2S(=O)(=O)c2ccccc2)CC1` [Compound 4, 2-(4-Carbamoylpiperidin-1-yl)-3-(phenylsulfonyl)Fquinoxaline], for which the melting point was 170 to 174 °C. In the data set with KB, this compound came in with an IC50 of 13700 nM. Also, the IC50 in the data set with PC3 was 1200 nM. In the data set with HL60, this compound had an IC50 of 220 nM. In the data set with A549, this compound registered an IC50 of 26600 nM. For the same compound, at recombinant human PI3Kα (setting [1]), the IC50 is greater than 10000 nM. Further, inhibition in the data set on HCT116 was half-maximal at 1570 nM (IC50).
The compound `CC(=O)N1CCN(c2nc3ccccc3nc2S(=O)(=O)c2ccccc2)CC1` [Compound 9, 2-(4-Acetylpiperazin-1-yl)-3-(phenylsulfonyl)quinoxaline] registered a melting point of 144 to 146 °C. In addition, in the data set with KB, the IC50 is 4420 nM. Also, 2250 nM corresponded to half-maximal inhibition in the data set with PC3 (IC50). This compound also had an IC50 in the data set on HL60 of 2430 nM. The same compound gave an IC50 with A549 of 1020 nM. The “Binding efficiency index (BEI)” value on recombinant human PI3Kα was 15.1. For the same compound, the IC50 at recombinant human PI3Kα (setting [1]) was 1090 nM. In the data set on HCT116, the IC50 was 1840 nM.
The compound `CN1CCN(c2nc3ccccc3nc2S(=O)(=O)c2ccccc2)CC1` [Compound 14, 2-(4-Methylpiperazin-1-yl)-3-(phenylsulfonyl)quinoxaline] came in with a melting point of 154 to 157 °C. Moreover, half-maximal inhibition in the data set on KB (IC50) was put at 4540 nM. Half-maximal inhibition in the data set with PC3 (IC50) required 2940 nM. Further, half-maximal inhibition in the data set with HL60 (IC50) required 770 nM. For the same compound, the IC50 in the data set on A549 worked out at 14000 nM. Besides, the IC50 at recombinant human PI3Kα (setting [1]) was greater than 10000 nM. In the data set with HCT116, inhibition was half-maximal at 2780 nM (IC50).
As to `Cc1ccc(S(=O)(=O)c2nc3ccccc3nc2N2CCN(C)CC2)cc1` [Compound 15, 2-(4-Methylpiperazin-1-yl)-3-(4-methylphenylsulfonyl)quinoxaline], the melting point was in the range of 127 to 130 °C. The compound also came in with an IC50 with KB of 470 nM. This compound came in with an IC50 in the data set on PC3 of 840 nM. The IC50 with HL60 worked out at 690 nM. Also, the IC50 in the data set on A549 was found to be 2400 nM. Further, the IC50 on recombinant human PI3Kα (setting [1]) was greater than 10000 nM. The compound also came in with an IC50 in the data set with HCT116 of 1680 nM.
For `CN1CCN(c2nc3ccccc3nc2S(=O)(=O)c2ccc(Br)cc2)CC1` [Compound 17, 2-(4-Methylpiperazin-1-yl)-3-(4-bromophenylsulfonyl)quinoxaline], the melting point was 141 to 142 °C. This compound gave an IC50 in the data set with KB of 870 nM. The same compound came in with an IC50 with PC3 of 1010 nM. The same compound registered an IC50 in the data set on HL60 of 280 nM. In the data set on A549, half-maximal inhibition (IC50) required 5180 nM. The “Binding efficiency index (BEI)” value at recombinant human PI3Kα was 12.0. On recombinant human PI3Kα (setting [1]), the IC50 turned out to be 4250 nM. This compound had an IC50 with HCT116 of 2310 nM.
The compound `O=S(=O)(c1ccc(Br)cc1)c1nc2ccccc2nc1N1CCNCC1` [Compound 22, 2-(Piperazin-1-yl)-3-(4-bromophenylsulfonyl)quinoxaline] showed a melting point of 92 to 96 °C. This compound showed an IC50 in the data set with KB of 9890 nM. Further, in the data set with PC3, the half-inhibitory concentration (IC50) amounted to 360 nM. Also, in the data set with HL60, the IC50 is 100 nM. Besides, the IC50 with A549 came to 750 nM. Also, the “Binding efficiency index (BEI)” value at recombinant human PI3Kα is recorded as 17.0. Also, on recombinant human PI3Kα (setting [1]), the IC50 was 40 nM. Also, the IC50 in the data set with HCT116 was found to be 190 nM.
For `Cc1ccc(S(=O)(=O)c2nc3ccccc3nc2N2CCNC(C)C2)cc1` (stereo not drawn) [Compound 25, 2-(3-Methylpiperazin-1-yl)-3-(4-methylphenylsulfonyl)quinoxaline], the melting point lay in the range of 136 to 138 °C. In addition, inhibition in the data set on KB was half-maximal at 9180 nM (IC50). Besides, the IC50 with PC3 came to 2030 nM. In the data set with HL60, this compound came in with an IC50 of 90 nM. Further, the midpoint of inhibition with A549, the IC50, lay at 1600 nM. Moreover, the “Binding efficiency index (BEI)” value on recombinant human PI3Kα was 16.2. Also, on recombinant human PI3Kα (setting [1]), the half-inhibitory concentration (IC50) was 650 nM. This compound had an IC50 in the data set on HCT116 of 1170 nM.
With `COc1ccc(S(=O)(=O)c2nc3ccccc3nc2N2CCNC(C)C2)cc1` (stereo not drawn) [Compound 26, 2-(3-Methylpiperazin-1-yl)-3-(4-methoxyphenylsulfonyl)quinoxaline], the melting point was in the range of 130 to 133 °C. In the data set on KB, the IC50 is 8530 nM. This compound also had an IC50 in the data set with PC3 of 930 nM. Also, it took 160 nM to reach half-maximal inhibition in the data set on HL60 (IC50). Moreover, in the data set with A549, the IC50 is 1650 nM. The “Binding efficiency index (BEI)” value at recombinant human PI3Kα was 16.6. Further, on recombinant human PI3Kα (setting [1]), the IC50 is 240 nM. The IC50 on recombinant human PI3Kα (as used for BEI, Table 5) is 240 nM. In the data set with HCT116, this compound came in with an IC50 of 540 nM.
In turn, `CC1CN(c2nc3ccccc3nc2S(=O)(=O)c2ccc(Br)cc2)CCN1` (stereo not drawn) [Compound 27, 2-(3-Methylpiperazin-1-yl)-3-(4-bromophenylsulfonyl)quinoxaline] returned a melting point of 158 to 160 °C. The compound also displayed an IC50 in the data set on KB of 9460 nM. The compound further returned an IC50 in the data set with PC3 of 600 nM. The same compound registered an IC50 in the data set with HL60 of 120 nM. For the same compound, the IC50 with A549 turned out to be 570 nM. Also, the “Binding efficiency index (BEI)” value at recombinant human PI3Kα was 16.1. In addition, at recombinant human PI3Kα (setting [1]), the IC50 was 61 nM. Moreover, the IC50 on recombinant human PI3Kα (as used for BEI, Table 5) was found to be 61 nM. Also, in the data set with HCT116, the IC50 was 320 nM.
`O=C(c1ccccc1)N1CCN(c2nc3ccccc3nc2S(=O)(=O)c2ccccc2)CC1` [Compound 29, 2-(4-Benzoylpiperazin-1-yl)-3-(phenylsulfonyl)quinoxaline]: the melting point is 224 to 226 °C. Moreover, the IC50 in the data set on KB amounted to 1220 nM. The same compound yielded an IC50 in the data set with PC3 of 4990 nM. The compound further had an IC50 with HL60 of 7200 nM. This compound returned an IC50 in the data set on A549 of 5200 nM. For the same compound, on recombinant human PI3Kα (setting [1]), the IC50 is greater than 10000 nM. The compound also returned an IC50 in the data set with HCT116 of 42400 nM.
Regarding `O=C(c1ccc(Cl)cc1)N1CCN(c2nc3ccccc3nc2S(=O)(=O)c2ccccc2)CC1` [Compound 34, 2-(4-(4-Chlorobenzoyl)piperazin-1-yl)-3-(phenylsulfonyl)quinoxaline], the melting point lay in the range of 217 to 219 °C. Besides, in the data set with KB, the IC50 amounted to 930 nM. The same compound returned an IC50 in the data set on PC3 of 2740 nM. Inhibition with HL60 was half-maximal at 5840 nM (IC50). This compound showed an IC50 in the data set on A549 of 3860 nM. On recombinant human PI3Kα, the “Binding efficiency index (BEI)” value is given as 11.3. In addition, the IC50 on recombinant human PI3Kα (setting [1]) was found to be 2750 nM. The compound further had an IC50 in the data set with HCT116 of 25400 nM.
Take `CS(=O)(=O)N1CCN(c2nc3ccccc3nc2S(=O)(=O)c2ccc(F)cc2)CC1` [Compound 43, 2-(4-(Methylsulfonyl)piperazin-1-yl)-3-(4-fluorophenylsulfonyl)quinoxaline]: the melting point lay within 206 to 207 °C. Also, the IC50 in the data set on PC3 worked out at 3300 nM. In the data set with A549, this compound had an IC50 of 1260 nM. In addition, on recombinant human PI3Kα, the “Binding efficiency index (BEI)” value came out at 13.3. In addition, the IC50 at recombinant human PI3Kα (setting [1]) worked out at 1010 nM. Moreover, in the data set on HCT116, the half-inhibitory concentration (IC50) came to 330 nM.
`Cc1ccc(S(=O)(=O)N2CCN(c3nc4ccccc4nc3S(=O)(=O)c3ccccc3)CC2)cc1` [Compound 44, 2-(4-(4-Methylphenylsulfonyl)piperazin-1-yl)-3-(phenylsulfonyl)quinoxaline] displayed a melting point of 161 to 163 °C. In the data set on KB, this compound displayed an IC50 of 3080 nM. Also, the IC50 in the data set with PC3 is 2190 nM. This compound registered an IC50 in the data set on HL60 of 6400 nM. The IC50 with A549 is 24300 nM. Also, the IC50 at recombinant human PI3Kα (setting [1]) was greater than 10000 nM. The compound also gave an IC50 in the data set with HCT116 of 7490 nM.

These data come from paper PMC3419191, “Identification of Novel Piperazinylquinoxaline Derivatives as Potent Phosphoinositide 3-Kinase (PI3K) Inhibitors” (PLoS ONE, 2012).
